Assay results reported in US20240307327A1, “DOSAGE FORMS OF MIRDAMETINIB” (SpringWorks Therapeutics, Inc., priority 2023, published 2024).

Experiment: Particle size distribution of mirdametinib drug substance lots (laser diffraction)
Format: physicochemical
Conditions: mirdametinib free base
Text: As used herein, “D50” or “d50”, also known as the median diameter, corresponds to the value under which 50% of the particles has a lower volume diameter. “D90” or “d90” corresponds to the value under which 90% of the particles has a lower volume diameter. The particle size may be measured using wet standard laser diffraction particle sizing techniques known in the art. One example of an instrument to measure the particle size of the dry powders is the Mastersizer 3000, manufactured by Malvern Panalytical Ltd. (Malvern, UK). As particles are often non-spherical, it is difficult and complex to provide dimensional descriptions of these non-spherical particles. As used herein, “volume diameter” refers to diameter of a sphere with equal volume of the non-spherical particle.
Mirdametinib free base (Lots #1, 2, and 3) having the properties in the table below were prepared.

D10 [μm]	Compound
4.9	O=C(NOC[C@H](O)CO)c1ccc(F)c(F)c1Nc1ccc(I)cc1F [Lot 1, N-((R)-2,3-dihydroxypropoxy)-3,4-difluoro-2-(2-fluoro-4-iodo-phenylamino)benzamide]
7.6	O=C(NOC[C@H](O)CO)c1ccc(F)c(F)c1Nc1ccc(I)cc1F [Lot 2, N-((R)-2,3-dihydroxypropoxy)-3,4-difluoro-2-(2-fluoro-4-iodo-phenylamino)benzamide]
